Measured values taken from paper PMC12475274, “Harnessing indole scaffolds to identify small-molecule IRE1α inhibitors modulating XBP1 mRNA splicing” (Nature Communications, 2025).
“Also recorded” adds a separate entry of the source.

Legend:
phosphorylated IRE1α = molecular target: T1, phosphorylated IRE1α (Homo sapiens, UniProt O75460); test: Microscale thermophoresis (MST), p-IRE1α; format: binding
T1 construct: Human IRE1α kinase and RNase domain (residues 547–977) was subcloned into pLIB plasmid; His tag (with TEV cleavage site) (N, cleaved yes); made in house; host or cells: Sf9 insect cells, baculovirus (Bac-to-Bac)
Method: Dephosphorylated IRE1α protein and phosphorylated IRE1α protein were labeled and purified using Protein Labeling Kit RED-NHS 2nd Generation (NanoTemper, MO-L011), following the manufacturer’s protocol. The labeling buffer contained 50 mM HEPES, pH 7.5, 200 mM NaCl, 2% glycerol, 0.5 mM TCEP, 0.05% tween20. MST experiments were performed using the Monolith Nt.115 instrument (NanoTemper), and binding experiments were conducted according to the instrument’s instructions. Compounds were serially diluted 2-fold and incubated with labeled IRE1α protein at a final concentration of 20 nM. The highest compound concentration measured was 250 μM with a final DMSO concentration of 2.5%. Measurements were carried out using the red detector with 60% excitation power. Data were analyzed using the manufacturer’s software, and results from three individual measurements were merged for analysis.

STK32B (YANK2) = STK32B (YANK2) (Homo sapiens, UniProt Q9NY57); test: Kinase profiling (SelectScreen), LanthaScreen Binding; settings: IA107 at 5 μM
Method: (§1) Kinase profiling was conducted by the SelectScreen Kinase Profiling Services (Thermo Fisher), using Z′-LYTE, Adapta, or LanthaScreen Eu Kinase Binding Assay for different kinases. The kinome phylogenetic tree was generated using the KinMap web portal.

MAP4K1 (HPK1) = MAP4K1 (HPK1) (Homo sapiens, UniProt Q92918); test: as above; settings: IA107 at 5 μM
Method: as §1

TNIK = TNIK (Homo sapiens, UniProt Q9UKE5); test: as above; settings: IA107 at 5 μM
Method: as §1

RIPK2 = RIPK2 (Homo sapiens, UniProt O43353); test: as above; settings: IA107 at 5 μM
Method: as §1

BMPR1B (ALK6) = BMPR1B (ALK6) (Homo sapiens, UniProt O00238); test: as above; settings: IA107 at 5 μM
Method: as §1

ULK2 = ULK2 (Homo sapiens, UniProt Q8IYT8); test: as above; settings: IA107 at 5 μM
Method: as §1

CAMKK2 (CaMKK beta) = CAMKK2 (CaMKK beta) (Homo sapiens, UniProt Q96RR4); test: as above; settings: IA107 at 5 μM
Method: as §1

BRSK2 = BRSK2 (Homo sapiens, UniProt Q8IWQ3); test: as above; settings: IA107 at 5 μM
Method: as §1

MYO3B (MYO3 beta) = MYO3B (MYO3 beta) (Homo sapiens, UniProt Q8WXR4); test: as above; settings: IA107 at 5 μM
Method: as §1

MAP3K14 (NIK) = MAP3K14 (NIK) (Homo sapiens, UniProt Q99558); test: as above; settings: IA107 at 5 μM
Method: as §1

ICK = ICK (Homo sapiens, UniProt Q9UPZ9); test: as above; settings: IA107 at 5 μM
Method: as §1

TTK = TTK (Homo sapiens, UniProt P33981); test: as above; settings: IA107 at 5 μM
Method: as §1

STK33 = STK33 (Homo sapiens, UniProt Q9BYT3); test: as above; settings: IA107 at 5 μM
Method: as §1

[1] = system: IRE1α transcription level in HT-29 cells; test: RT-qPCR of IRE1α transcription level, HT-29; format: cell-based, human; settings: HT-29 cells
Method: (§2) A549 cells, HCT 116 cells, and HT-29 cells were collected and seeded in 6-well plates at a density of 5 × 10^5 cells per well and cultured overnight to attach, then treated with compound or DMSO for 2 h, then 0.5 μg/mL final concentration of tunicamycin (Tm, MP Biomedi, 0215002805) were added to induce the ER stress for 2 h. After treatment, total RNA was purified using an RNeasy mini kit (Qiagen, 74106). 500 ng of total RNA was used for reverse transcription using the High-Capacity cDNA Reverse Transcription Kits (Thermo Fisher, 4368814). cDNA was diluted 1: 5 using RNase-free water, and 1 μL CDNA was used for each qPCR reaction. The qPCR was performed using PowerUp™ SYBR™ Green Master Mix (Thermo Fisher, A25742) with 10 µL reaction volume using Bio-Rad CFX96 Real-Time PCR Detection System following the standard cycling mode (primer Tm ≥ 60 °C) on the manufacturer’s protocol. Data was analyzed using the 2^- ΔΔCt method. The primers used are listed in Supplementary Table S3. The inhibition % was calculated by using the equation: inhibition% = 100× (normalized Tm control - normalized of the sample)/(normalized Tm control - normalized DMSO control). Tm control: Cells treated with tunicamycin; DMSO control: Cells treated with DMSO only.

[2] = system: XBP1 mRNA splicing in HT-29 cells; test: RT-qPCR of ER stress-induced XBP1 mRNA splicing, HT-29; format: cell-based, human; settings: HT-29 cells
Method: as §2

BRSK2, sequence (Q8IWQ3 whole entry): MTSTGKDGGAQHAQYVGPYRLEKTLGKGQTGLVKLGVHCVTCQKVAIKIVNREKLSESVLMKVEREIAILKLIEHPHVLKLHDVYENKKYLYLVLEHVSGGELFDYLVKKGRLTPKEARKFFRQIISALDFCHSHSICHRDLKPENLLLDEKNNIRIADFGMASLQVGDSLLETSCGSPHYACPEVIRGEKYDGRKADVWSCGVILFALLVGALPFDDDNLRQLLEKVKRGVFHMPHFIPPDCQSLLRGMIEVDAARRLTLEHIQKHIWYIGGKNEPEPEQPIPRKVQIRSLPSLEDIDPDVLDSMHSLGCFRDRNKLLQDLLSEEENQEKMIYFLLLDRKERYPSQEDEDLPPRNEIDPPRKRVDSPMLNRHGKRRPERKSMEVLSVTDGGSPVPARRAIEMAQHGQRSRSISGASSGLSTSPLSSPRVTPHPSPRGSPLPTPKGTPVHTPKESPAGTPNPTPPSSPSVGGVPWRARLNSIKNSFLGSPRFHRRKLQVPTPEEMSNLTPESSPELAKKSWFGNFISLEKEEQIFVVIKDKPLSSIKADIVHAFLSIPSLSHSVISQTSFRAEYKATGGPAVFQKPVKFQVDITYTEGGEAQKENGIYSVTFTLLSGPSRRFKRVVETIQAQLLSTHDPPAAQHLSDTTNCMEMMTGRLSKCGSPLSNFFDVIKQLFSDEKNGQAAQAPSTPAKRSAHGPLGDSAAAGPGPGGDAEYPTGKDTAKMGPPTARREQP
MYO3B (MYO3 beta), sequence (Q8WXR4 whole entry): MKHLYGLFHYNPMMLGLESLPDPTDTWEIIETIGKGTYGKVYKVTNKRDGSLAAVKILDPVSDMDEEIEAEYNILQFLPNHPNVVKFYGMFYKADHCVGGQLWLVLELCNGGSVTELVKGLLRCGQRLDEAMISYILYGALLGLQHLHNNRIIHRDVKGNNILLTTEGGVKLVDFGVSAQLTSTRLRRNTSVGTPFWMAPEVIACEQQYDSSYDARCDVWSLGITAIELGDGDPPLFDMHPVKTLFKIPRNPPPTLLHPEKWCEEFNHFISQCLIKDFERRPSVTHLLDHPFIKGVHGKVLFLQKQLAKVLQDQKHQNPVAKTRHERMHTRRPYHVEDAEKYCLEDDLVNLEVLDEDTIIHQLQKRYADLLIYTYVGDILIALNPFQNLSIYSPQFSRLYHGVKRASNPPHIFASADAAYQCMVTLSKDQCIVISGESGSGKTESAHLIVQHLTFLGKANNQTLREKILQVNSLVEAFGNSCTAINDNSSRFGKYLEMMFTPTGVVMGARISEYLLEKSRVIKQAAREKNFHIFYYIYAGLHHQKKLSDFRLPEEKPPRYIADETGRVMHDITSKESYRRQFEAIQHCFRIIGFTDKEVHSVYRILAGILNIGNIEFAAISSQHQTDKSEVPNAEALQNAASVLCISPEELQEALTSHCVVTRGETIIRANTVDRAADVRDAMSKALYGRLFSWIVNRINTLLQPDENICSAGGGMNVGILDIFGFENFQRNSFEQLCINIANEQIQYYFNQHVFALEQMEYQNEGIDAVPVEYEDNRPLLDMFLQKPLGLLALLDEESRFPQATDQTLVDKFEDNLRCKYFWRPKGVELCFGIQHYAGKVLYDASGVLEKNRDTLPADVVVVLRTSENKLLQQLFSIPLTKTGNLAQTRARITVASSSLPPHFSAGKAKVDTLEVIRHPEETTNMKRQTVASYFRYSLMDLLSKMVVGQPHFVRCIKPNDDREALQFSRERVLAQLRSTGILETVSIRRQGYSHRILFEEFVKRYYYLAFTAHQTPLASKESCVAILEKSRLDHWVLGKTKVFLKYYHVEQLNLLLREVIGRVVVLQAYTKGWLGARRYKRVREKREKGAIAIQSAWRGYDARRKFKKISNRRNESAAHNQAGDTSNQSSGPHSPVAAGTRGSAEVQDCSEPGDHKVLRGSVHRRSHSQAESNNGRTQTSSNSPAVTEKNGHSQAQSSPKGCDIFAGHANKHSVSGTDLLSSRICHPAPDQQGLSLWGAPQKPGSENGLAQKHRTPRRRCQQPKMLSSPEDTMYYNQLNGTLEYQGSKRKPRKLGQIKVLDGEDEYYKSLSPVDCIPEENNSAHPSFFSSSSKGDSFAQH
TTK, sequence (P33981 whole entry): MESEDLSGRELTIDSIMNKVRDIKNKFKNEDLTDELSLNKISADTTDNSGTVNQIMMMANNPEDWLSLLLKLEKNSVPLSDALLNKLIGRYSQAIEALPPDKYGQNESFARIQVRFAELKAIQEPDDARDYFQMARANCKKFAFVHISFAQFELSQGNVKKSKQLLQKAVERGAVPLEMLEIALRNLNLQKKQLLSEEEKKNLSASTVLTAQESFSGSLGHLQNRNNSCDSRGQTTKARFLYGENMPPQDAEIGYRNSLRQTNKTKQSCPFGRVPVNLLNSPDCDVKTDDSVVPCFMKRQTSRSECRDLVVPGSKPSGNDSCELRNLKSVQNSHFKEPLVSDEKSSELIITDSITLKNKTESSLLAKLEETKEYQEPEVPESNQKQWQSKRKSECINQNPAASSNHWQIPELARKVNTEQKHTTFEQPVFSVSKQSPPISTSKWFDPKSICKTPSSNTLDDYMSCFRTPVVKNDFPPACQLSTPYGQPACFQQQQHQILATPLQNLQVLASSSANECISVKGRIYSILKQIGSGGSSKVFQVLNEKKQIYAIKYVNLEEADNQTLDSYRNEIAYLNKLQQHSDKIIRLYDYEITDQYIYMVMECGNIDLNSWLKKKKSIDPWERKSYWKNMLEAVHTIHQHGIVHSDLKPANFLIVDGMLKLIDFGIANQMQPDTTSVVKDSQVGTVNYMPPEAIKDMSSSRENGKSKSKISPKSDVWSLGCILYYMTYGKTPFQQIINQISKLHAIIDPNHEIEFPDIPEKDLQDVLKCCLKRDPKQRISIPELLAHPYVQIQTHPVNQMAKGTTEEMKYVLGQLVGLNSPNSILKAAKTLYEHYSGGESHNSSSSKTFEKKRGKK
ULK2, sequence (Q8IYT8 whole entry): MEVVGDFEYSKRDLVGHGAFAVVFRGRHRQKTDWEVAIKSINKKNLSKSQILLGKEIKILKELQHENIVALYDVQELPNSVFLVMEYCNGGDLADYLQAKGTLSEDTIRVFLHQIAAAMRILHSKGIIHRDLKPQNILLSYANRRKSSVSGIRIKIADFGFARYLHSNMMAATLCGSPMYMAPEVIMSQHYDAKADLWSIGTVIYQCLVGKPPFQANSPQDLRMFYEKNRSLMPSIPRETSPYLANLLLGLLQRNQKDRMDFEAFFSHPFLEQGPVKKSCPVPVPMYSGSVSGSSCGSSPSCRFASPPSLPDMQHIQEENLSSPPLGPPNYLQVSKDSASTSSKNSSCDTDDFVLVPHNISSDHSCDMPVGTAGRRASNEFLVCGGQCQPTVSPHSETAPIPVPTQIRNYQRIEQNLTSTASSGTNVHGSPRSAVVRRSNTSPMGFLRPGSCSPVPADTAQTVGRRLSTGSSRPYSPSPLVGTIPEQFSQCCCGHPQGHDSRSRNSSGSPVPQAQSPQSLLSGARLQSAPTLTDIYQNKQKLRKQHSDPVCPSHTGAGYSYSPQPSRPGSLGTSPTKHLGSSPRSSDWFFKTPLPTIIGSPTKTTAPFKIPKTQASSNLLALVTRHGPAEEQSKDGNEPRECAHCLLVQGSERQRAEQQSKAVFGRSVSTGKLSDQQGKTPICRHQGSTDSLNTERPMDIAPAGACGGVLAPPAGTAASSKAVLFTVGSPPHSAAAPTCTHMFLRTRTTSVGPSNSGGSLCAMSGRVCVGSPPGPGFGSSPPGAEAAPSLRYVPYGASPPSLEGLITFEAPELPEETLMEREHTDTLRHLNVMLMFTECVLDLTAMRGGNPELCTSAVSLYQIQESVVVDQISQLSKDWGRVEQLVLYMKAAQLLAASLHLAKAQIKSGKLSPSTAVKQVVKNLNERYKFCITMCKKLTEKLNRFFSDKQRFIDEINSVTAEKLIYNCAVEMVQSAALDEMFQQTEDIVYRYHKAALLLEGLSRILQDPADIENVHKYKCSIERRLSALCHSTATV
MAP4K1 (HPK1), sequence (Q92918 whole entry): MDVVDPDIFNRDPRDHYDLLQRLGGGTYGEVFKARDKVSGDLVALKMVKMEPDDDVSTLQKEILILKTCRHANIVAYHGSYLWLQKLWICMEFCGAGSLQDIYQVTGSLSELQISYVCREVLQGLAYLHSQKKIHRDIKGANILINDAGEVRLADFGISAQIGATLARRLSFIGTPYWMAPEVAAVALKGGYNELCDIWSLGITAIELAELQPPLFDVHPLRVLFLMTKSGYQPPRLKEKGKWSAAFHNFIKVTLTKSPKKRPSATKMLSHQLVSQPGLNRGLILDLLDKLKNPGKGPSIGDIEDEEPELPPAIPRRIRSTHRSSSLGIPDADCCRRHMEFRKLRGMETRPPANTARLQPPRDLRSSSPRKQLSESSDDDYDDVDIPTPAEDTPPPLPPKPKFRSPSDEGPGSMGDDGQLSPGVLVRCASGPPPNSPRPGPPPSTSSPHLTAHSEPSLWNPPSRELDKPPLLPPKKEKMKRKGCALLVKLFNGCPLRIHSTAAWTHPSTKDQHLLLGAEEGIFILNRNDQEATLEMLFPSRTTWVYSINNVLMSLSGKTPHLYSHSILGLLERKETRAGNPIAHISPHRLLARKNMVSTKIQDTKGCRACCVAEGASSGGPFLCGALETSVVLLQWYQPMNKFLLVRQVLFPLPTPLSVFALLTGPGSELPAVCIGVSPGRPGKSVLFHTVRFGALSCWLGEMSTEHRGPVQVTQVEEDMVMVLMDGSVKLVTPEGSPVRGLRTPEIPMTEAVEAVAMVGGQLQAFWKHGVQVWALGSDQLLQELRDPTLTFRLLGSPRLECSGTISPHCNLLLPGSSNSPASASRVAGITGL

Row | SMILES | Kd (phosphorylated IRE1α) [nM] | inhibition at 5 µM (STK32B (YANK2)) [%] | inhibition at 5 µM (MAP4K1 (HPK1)) [%] | inhibition at 5 µM (TNIK) [%] | inhibition at 5 µM (RIPK2) [%] | inhibition at 5 µM (BMPR1B (ALK6)) [%] | inhibition at 5 µM (ULK2) [%] | inhibition at 5 µM (CAMKK2 (CaMKK beta)) [%] | inhibition at 5 µM (BRSK2) [%] | inhibition at 5 µM (MYO3B (MYO3 beta)) [%] | inhibition at 5 µM (MAP3K14 (NIK)) [%] | inhibition at 5 µM (ICK) [%] | inhibition at 5 µM (TTK) [%] | inhibition at 5 µM (STK33) [%] | effect on IRE1α transcription level [1] | inhibition of ER stress-induced XBP1 mRNA splicing [2] | IC50 ([2]; Homo sapiens) [nM]
1 | Cc1c(CCC(=O)O)c2cc(Br)ccc2n1C(=O)c1ccccc1 [IA107] | 152 | 2 | -2 | 8 | 0 | 12 | -3 | 4 | 1 | -2 | 0 | -2 | 6 | -4 |  |  | 
2 | CCOC(=O)CCc1c(C)n(C(=O)c2ccccc2)c2ccc(Br)cc12 [IAPD1] |  |  |  |  |  |  |  |  |  |  |  |  |  |  | did not influence; also recorded: no obvious impact | inhibited | 160
